Molecules are shown by their SMILES.

The values below come from publication doi:10.1101/2023.02.24.529844v1, “Characterization of new highly selective pyrazolo[4,3-d]pyrimidine inhibitor of CDK7” (biorxiv, 2023).

For one assay, the target named is T1, CK1δ (Homo sapiens, UniProt P48730).
T1 construct: gene CSNK1D; Eurofins Discovery kinase panel
Nature of the assay: Eurofins kinase selectivity panel. The format is biochemical. As to conditions: read-out: residual activity at 1 μM.

Another assay concerns the target T2, CDK16 (Homo sapiens, UniProt Q00536).
T2 construct: Eurofins Discovery kinase panel
Nature of the assay: Eurofins kinase selectivity panel. The format is biochemical. As to conditions: read-out: residual activity at 1 μM.

A further assay deals with T3, CDK7 (Homo sapiens, UniProt P50613).
T3 construct: recombinant CDK7; with Cyclin-H
T3 sequence (P50613 2-346): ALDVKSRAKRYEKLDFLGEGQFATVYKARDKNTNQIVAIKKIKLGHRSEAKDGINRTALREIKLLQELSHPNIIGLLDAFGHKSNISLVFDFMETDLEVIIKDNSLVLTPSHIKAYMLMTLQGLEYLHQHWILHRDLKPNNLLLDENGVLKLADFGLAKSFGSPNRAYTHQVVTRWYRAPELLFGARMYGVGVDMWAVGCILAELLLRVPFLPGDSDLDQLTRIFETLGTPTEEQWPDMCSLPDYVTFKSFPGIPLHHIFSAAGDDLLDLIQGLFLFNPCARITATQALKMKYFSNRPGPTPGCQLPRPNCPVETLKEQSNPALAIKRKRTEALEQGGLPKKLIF
T3 sequence (P51946 whole entry partner): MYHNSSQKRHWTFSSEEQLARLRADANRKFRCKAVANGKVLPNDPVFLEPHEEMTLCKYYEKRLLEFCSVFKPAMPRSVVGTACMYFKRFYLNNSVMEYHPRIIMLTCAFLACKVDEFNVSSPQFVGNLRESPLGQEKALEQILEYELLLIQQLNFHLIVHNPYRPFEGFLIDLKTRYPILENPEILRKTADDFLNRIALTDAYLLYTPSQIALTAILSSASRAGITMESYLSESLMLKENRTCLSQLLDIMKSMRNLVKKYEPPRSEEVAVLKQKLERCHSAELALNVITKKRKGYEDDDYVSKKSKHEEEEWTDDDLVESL
T3 sequence (P51948 whole entry partner): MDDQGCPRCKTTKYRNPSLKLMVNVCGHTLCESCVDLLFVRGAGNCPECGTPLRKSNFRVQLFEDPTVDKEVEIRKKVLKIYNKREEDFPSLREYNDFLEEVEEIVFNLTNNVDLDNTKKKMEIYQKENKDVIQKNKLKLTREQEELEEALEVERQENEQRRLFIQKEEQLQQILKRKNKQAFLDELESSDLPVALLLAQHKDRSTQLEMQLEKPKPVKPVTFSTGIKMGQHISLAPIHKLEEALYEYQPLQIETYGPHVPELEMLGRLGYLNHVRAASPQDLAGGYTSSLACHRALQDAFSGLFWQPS
In words: [gamma-33P]ATP radiometric kinase assay. The format is biochemical.

Another assay deals with CDK1/cyclin B (Homo sapiens, UniProt P06493). Nature of the assay: biochemical. Details: radiometric kinase inhibition assay with [gamma-33P]ATP, P-81 phosphocellulose spotting, digital image analysis. The procedure: (§1) The kinase inhibition assay was performed as previously described. Briefly, all tested kinases were incubated with specific substrates in the presence of ATP, 0.05 µCi [γ^33P]ATP and the LGR6768 compound in a final volume of 10 µl. The reaction was stopped by adding 3% aq. H3PO4. Aliquots were spotted onto P-81 phosphocellulose (Whatman), washed three times with 0.5% aq. H3PO4 and air-dried. Kinase inhibition was quantified using a FLA-7000 digital image analyser (Fujifilm). The drug doses required to decrease kinase activities by 50%, represented by the IC50 values, were determined from dose[…]response curves. The selectivity profiling of LGR6768 was performed on a panel of 50 kinases, including known off-targets of other structurally related pyrazolo[4,3-d]pyrimidines or isosteres, such as roscovitine or CR8 [31]. Given the high structural similarity within the CDK family, we also evaluated LGR6768 against 14 CDKs to assess its selectivity across them. The compound was applied at a 1 µM concentration, and the experiment confirmed selective reduction of the enzymatic activity of CDK7 to 4%.
Chain of CDK1/cyclin B (P06493 whole entry): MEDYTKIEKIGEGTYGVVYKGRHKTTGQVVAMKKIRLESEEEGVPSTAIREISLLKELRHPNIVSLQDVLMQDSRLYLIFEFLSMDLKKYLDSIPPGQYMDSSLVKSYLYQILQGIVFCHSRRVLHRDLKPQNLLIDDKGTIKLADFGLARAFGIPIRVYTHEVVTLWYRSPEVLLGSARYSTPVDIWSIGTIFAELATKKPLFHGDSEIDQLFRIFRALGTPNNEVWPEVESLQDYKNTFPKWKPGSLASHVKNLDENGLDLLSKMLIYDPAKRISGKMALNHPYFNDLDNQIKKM
Chain of CDK1/cyclin B (P14635 whole entry partner): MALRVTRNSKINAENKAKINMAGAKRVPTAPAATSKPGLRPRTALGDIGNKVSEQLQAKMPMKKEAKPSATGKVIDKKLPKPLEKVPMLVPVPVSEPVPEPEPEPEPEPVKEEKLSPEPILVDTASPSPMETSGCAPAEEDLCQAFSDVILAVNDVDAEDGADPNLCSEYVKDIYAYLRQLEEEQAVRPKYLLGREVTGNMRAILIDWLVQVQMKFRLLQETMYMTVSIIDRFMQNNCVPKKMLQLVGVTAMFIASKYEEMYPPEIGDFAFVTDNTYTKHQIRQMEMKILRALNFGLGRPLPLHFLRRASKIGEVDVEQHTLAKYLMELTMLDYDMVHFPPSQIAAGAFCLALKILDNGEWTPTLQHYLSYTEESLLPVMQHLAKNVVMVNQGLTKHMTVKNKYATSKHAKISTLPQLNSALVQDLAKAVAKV

For the next assay, the target named is CDK2/cyclin A (Homo sapiens, UniProt P24941). In words: biochemical. Details: radiometric kinase inhibition assay with [gamma-33P]ATP, P-81 phosphocellulose spotting, digital image analysis. The procedure:
as §1

Another assay deals with CDK2/cyclin E (Homo sapiens, UniProt P24941). Nature of the assay: biochemical. Details: radiometric kinase inhibition assay with [gamma-33P]ATP, P-81 phosphocellulose spotting, digital image analysis. How it is done:
as §1

The next assay deals with CDK4/cyclin D1 (Homo sapiens, UniProt P11802). Nature of the assay: biochemical. Details: radiometric kinase inhibition assay with [gamma-33P]ATP, P-81 phosphocellulose spotting, digital image analysis. The procedure:
as §1

The target of the next assay is CDK5/p25 (Homo sapiens, UniProt Q00535). In words: biochemical. Details: radiometric kinase inhibition assay with [gamma-33P]ATP, P-81 phosphocellulose spotting, digital image analysis. The procedure:
as §1

A further assay deals with CDK9/cyclin T (Homo sapiens, UniProt P50750). Nature of the assay: biochemical. Details: radiometric kinase inhibition assay with [gamma-33P]ATP, P-81 phosphocellulose spotting, digital image analysis. How it is done: as §1
Chain of CDK9/cyclin T (P50750 whole entry): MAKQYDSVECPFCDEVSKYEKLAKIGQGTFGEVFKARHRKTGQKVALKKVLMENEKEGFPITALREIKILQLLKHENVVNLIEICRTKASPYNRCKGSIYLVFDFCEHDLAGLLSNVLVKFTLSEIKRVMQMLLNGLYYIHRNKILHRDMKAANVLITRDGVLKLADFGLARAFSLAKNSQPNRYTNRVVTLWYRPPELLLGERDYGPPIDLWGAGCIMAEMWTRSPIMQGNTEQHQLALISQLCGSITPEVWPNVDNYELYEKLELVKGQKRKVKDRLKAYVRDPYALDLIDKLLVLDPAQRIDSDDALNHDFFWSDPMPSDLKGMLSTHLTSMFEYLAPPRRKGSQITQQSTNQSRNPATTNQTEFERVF
Chain of CDK9/cyclin T (O60563 whole entry partner): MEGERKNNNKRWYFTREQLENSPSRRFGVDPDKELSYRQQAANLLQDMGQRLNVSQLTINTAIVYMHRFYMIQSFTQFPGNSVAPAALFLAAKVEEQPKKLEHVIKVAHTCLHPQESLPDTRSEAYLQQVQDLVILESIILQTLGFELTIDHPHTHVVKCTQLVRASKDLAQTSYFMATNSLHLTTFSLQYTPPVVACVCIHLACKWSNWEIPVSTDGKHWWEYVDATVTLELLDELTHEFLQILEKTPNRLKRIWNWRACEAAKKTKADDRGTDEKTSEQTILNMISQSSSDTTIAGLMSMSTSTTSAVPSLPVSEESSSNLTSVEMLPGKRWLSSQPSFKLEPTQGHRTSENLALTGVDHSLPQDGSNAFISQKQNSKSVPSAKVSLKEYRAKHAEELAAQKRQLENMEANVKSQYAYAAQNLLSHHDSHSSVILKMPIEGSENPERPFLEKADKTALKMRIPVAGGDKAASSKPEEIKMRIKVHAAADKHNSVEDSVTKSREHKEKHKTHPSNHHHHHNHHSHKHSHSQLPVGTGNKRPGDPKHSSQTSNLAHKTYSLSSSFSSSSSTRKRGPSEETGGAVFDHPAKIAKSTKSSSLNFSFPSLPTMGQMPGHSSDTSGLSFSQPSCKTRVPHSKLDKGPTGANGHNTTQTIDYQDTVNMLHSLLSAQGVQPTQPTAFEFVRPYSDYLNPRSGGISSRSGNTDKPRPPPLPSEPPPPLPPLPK

T2 sequence (Q00536 whole entry): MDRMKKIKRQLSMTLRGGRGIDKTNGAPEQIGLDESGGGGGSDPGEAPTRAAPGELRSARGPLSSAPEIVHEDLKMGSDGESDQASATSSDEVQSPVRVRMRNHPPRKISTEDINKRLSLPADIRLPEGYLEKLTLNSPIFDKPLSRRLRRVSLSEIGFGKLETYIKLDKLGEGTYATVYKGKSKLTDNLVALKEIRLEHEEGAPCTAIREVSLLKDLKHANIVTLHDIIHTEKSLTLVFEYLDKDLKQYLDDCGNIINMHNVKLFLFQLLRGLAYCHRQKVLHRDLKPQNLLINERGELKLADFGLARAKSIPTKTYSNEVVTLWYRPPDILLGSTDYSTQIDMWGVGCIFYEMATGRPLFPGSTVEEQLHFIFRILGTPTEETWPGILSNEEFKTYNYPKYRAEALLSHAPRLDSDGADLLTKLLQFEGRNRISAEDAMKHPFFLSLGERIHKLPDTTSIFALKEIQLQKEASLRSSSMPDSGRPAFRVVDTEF
T1 sequence (P48730 whole entry): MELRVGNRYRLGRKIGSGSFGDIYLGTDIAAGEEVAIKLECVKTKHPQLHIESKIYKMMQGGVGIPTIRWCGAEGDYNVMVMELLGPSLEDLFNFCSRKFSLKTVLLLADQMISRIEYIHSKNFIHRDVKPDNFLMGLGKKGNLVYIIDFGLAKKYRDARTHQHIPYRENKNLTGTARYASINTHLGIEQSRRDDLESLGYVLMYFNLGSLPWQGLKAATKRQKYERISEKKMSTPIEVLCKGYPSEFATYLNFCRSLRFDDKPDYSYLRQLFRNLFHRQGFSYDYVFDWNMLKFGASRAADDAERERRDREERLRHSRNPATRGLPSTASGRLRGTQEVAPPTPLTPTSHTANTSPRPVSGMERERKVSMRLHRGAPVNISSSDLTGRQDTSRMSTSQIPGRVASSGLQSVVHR
Chain of CDK5/p25 (Q00535 whole entry): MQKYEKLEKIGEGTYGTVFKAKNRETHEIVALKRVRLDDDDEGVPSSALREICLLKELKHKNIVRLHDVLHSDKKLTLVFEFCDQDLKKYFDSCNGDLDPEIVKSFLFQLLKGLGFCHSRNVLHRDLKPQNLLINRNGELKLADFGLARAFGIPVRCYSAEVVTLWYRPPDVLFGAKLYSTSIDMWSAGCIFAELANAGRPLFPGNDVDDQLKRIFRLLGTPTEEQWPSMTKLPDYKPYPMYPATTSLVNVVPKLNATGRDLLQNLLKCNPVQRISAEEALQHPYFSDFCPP
Chain of CDK5/p25 (Q15078 whole entry partner): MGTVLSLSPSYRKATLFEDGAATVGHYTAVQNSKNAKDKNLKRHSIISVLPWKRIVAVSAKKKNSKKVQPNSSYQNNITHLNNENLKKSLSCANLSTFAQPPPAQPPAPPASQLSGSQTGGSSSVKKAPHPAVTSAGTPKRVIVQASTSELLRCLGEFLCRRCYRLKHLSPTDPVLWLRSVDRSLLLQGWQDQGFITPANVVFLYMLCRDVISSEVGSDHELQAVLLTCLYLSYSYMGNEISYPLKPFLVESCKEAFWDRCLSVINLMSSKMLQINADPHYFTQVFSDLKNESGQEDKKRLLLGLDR
Chain of CDK4/cyclin D1 (P11802 whole entry): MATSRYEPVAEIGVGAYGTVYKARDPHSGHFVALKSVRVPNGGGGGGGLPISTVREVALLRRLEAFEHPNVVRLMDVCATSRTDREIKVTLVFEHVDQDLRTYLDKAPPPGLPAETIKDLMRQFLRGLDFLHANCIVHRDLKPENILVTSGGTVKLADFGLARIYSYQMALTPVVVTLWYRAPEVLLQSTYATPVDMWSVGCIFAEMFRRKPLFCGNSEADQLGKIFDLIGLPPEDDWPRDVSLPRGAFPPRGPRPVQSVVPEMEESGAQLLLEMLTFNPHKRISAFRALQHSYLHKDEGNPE
Chain of CDK4/cyclin D1 (P24385 whole entry partner): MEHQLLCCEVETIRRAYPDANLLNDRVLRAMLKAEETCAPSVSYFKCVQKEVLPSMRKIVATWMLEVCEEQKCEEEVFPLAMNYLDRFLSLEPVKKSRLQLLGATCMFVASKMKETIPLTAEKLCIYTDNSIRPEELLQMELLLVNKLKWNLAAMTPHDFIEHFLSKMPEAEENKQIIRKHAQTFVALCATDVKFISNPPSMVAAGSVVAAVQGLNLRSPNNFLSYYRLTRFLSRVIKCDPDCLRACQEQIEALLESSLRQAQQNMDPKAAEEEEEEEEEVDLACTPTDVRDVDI

As to `CC(C)c1n[nH]c2c(NCc3ccccc3-c3ccccc3)nc(SC3CCNCC3)nc12` [compound 4, 5-(piperidin-4-yl)thio-3-isopropyl-7-(2-phenylbenzyl)amino-1(2)H-pyrazolo[4,3-d]pyrimidine], the remaining activity at 1 µM on CK1δ and on CDK16 was 19% in each case. The IC50 is 0.02 µM at CDK7; 5.14 µM on CDK1/cyclin B; 0.5 µM against CDK2/cyclin A; 0.25 µM against CDK2/cyclin E; more than 20 µM against CDK4/cyclin D1; 1.12 µM on CDK5/p25. The compound further gave an IC50 on CDK9/cyclin T of 6.55 µM.
